Experimental data as given in patent US11427556B2, “Urea derivatives as inhibitors of ASK1” (Hepagene Therapeutics (HK) Limited, priority 2017, dated 2022).

biological target: T1, Recombinant human ASK1 kinase (Homo sapiens, UniProt Q99683); assay: ASK1 kinase HTRF assay (HTRF KinEASE-STK, phosphorylation of biotinylated peptide substrate); type: biochemical; conditions: not given
T1 construct: purchased Invitrogen Inc
T1 sequence (Q99683 1-1374): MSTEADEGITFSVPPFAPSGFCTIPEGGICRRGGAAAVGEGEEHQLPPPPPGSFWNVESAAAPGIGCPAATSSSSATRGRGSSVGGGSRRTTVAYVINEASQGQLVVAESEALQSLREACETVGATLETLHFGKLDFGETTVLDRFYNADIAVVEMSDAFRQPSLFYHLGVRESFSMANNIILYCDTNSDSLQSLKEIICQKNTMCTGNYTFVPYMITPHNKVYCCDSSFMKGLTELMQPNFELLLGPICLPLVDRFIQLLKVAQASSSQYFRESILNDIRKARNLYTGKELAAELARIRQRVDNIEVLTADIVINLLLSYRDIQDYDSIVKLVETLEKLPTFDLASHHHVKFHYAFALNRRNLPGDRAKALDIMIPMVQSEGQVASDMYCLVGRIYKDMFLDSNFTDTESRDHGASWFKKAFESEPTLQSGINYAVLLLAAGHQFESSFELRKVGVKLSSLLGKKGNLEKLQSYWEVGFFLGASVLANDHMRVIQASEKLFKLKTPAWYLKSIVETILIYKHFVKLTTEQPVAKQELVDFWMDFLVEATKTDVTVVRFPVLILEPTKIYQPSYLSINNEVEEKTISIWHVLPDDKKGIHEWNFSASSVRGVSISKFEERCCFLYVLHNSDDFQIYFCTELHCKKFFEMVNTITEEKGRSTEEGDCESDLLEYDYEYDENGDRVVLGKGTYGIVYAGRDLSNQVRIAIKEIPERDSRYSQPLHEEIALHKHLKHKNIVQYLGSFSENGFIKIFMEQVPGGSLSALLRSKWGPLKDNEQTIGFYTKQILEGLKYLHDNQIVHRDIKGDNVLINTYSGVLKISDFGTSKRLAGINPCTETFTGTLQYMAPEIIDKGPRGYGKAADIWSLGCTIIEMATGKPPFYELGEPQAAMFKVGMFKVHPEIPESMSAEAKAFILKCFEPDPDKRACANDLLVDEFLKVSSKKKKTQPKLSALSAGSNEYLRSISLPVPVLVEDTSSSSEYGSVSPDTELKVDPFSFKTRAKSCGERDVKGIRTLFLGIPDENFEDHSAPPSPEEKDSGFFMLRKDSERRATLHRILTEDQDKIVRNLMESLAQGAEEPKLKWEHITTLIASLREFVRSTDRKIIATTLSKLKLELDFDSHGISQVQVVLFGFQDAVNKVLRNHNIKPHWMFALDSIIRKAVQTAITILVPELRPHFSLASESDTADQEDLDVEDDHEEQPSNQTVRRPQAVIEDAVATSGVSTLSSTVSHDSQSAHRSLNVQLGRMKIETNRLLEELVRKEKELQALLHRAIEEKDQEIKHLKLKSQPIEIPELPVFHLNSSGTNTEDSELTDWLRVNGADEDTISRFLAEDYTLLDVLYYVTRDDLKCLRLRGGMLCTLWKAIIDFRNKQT
Method: Reagents: Recombinant human ASK1 kinase was from Invitrogen Inc. HTRF KinEASETM-STK S3 kit was obtained from Cisbio (Bedford, Mass.). All other reagents were of the highest grade commercially available.
Assay: The assay measures the phosphorylation level of a biotinylatd peptide substrate by the ASK1 kinase using HTRF detection. ASK1 kinase assay is based on HTRF KinEASETM-STK manual from Cisbio. Test compound, 1 uM STK-substrate-biotin, 3 nM of ASK1 kinase are incubated with 1*Kinase buffer with 5 mM MgCl2 and 1 mM DTT.

SMILES | EC50
CC(C)n1cnnc1-c1cccc(NC(=O)Nc2ccccn2)n1 [Compound I-025] | < 50 nM
CC(C)n1cnnc1-c1cccc(NC(=O)Nc2cc(C(=O)N3CCCCC3)ccn2)n1 [Compound I-109] | < 50 nM
C[C@H](CO)n1cnnc1-c1cccc(NC(=O)Nc2cc(C(=O)N3CCC(=O)CC3)ccn2)n1 [Compound I-135] | < 50 nM
CC(C)n1cnnc1-c1cccc(NC(=O)Nc2cc(C(=O)N3CCNCC3)ccn2)n1 [Compound I-139] | < 50 nM
C[C@H](CO)n1cnnc1-c1cccc(NC(=O)Nc2cc(C(=O)N3CCOCC3)ccn2)n1 [Compound I-133] | < 50 nM
CC(C)n1cnnc1-c1cccc(NC(=O)Nc2ccccc2)n1 [Compound I-016] | 50 to 500 nM
CC(C)n1cnnc1-c1cccc(NC(=O)Nc2cc(C(=O)N3CCC(=O)CC3)ccn2)n1 [Compound I-134] | < 50 nM

same assay, conditions: 3 nM ASK1 kinase, 1 uM STK-substrate-biotin, HTRF detection; read-out: EC50

SMILES | EC50
CC(C)n1cnnc1-c1cccc(NC(=O)Nc2cc(-c3ccccc3)ccn2)n1 [Compound I-077] | < 50 nM
CC(C)n1cnnc1-c1cccc(NC(=O)Nc2cc(-n3cnc(C4CC4)c3)ccn2)n1 [Compound I-170] | < 50 nM
CC(n1cnnc1-c1cccc(NC(=O)Nc2ccccn2)n1)C(F)(F)F (stereo not shown) [Compound I-003, 3-(Pyridin-2-yl)-1-[6-[4-(1,1,1-trifluoropropan-2-yl)-4H-1,2,4-triazol-3-yl]pyridin-2-yl]urea] | < 50 nM
CC(C)n1cnnc1-c1cccc(NC(=O)Nc2ccc(C3CC3)cn2)n1 [Compound I-046] | < 50 nM
C[C@H](CO)n1cnnc1-c1cccc(NC(=O)Nc2cc(C(=O)Nc3ccccc3)ccn2)n1 [Compound I-153] | < 50 nM
C[C@H](CO)n1cnnc1-c1cccc(NC(=O)Nc2cc(C(=O)N3CCCC[C@@H]3C)ccn2)n1 [Compound I-119] | < 50 nM
CC(=O)OC[C@@H](C)n1cnnc1-c1cccc(N2CCN(c3ccc(N4CCOCC4)cn3)C2=O)n1 [Compound V-19] | 50 to 500 nM
CC(C)n1cnnc1-c1cccc(NC(=O)Nc2cc(C3CCCC3)ccn2)n1 [Compound I-048] | < 50 nM
CC(C)n1cnnc1-c1cccc(NC(=O)Nc2cccc(Cl)n2)n1 [Compound I-185] | < 50 nM
CC(C)n1cnnc1-c1cccc(NC(=O)Nc2cc3cc(N4CCNCC4)ccc3cn2)n1 [Compound I-065] | 50 to 500 nM
CC(C)n1cnnc1-c1cccc(NC(=O)Nc2ccc(Br)cn2)n1 [Compound I-178] | < 50 nM
CC(C)[C@H](N)C(=O)OC[C@@H](C)n1cnnc1-c1cccc(NC(=O)Nc2cc3ccccc3cn2)n1 [Compound I-062] | < 50 nM
C[C@H](CO)n1cnnc1-c1cccc(N2CCN(c3ccc(C(=O)N4CCOCC4)cn3)C2=O)n1 [Compound V-26] | < 50 nM
CC(C)n1cnnc1-c1cccc(NC(=O)Nc2ncccc2C(=O)O)n1 [Compound I-201] | 50 to 500 nM
CC(C)n1cnnc1-c1cccc(NC(=O)Nc2cc(S(N)(=O)=O)ccn2)n1 [Compound I-205] | < 50 nM
Cc1ccc(NC(=O)Nc2cccc(-c3nncn3C(C)CO)n2)nc1 (stereo not shown) [Compound I-035] | < 50 nM
C[C@H](CO)n1cnnc1-c1cccc(NC(=O)Nc2cc3ccccc3cn2)n1 [Compound I-058] | < 50 nM
Cc1ccc(NC(=O)Nc2cccc(-c3nncn3C(C)C)n2)cc1 [Compound I-017] | 50 to 500 nM
CC(C)n1cnnc1-c1cccc(N2CCN(c3ccc(F)cn3)C2=O)n1 [Compound V-02] | < 50 nM
COc1ccnc(NC(=O)Nc2cccc(-c3nncn3[C@H](C)CO)n2)c1 [Compound I-053] | < 50 nM
C[C@H](CO)n1cnnc1-c1cccc(NC(=O)Nc2cc(C(=O)N3CCCc4ccccc43)ccn2)n1 [Compound I-124] | < 50 nM
CC(C)n1cnnc1-c1cccc(NC(=O)Nc2cc(C3CCNCC3)ccn2)n1 [Compound I-050] | < 50 nM
CC1(n2cnnc2-c2cccc(NC(=O)Nc3cc(C(=O)N4CCCCC4)ccn3)n2)CC1 [Compound I-115] | < 50 nM
CC(C)n1cnnc1-c1cccc(NC(=O)Nc2cc(F)ccn2)n1 [Compound I-187] | < 50 nM

SMILES | EC50
C[C@@H](CO)n1cnnc1-c1cccc(NC(=O)Nc2cc3ccccc3cn2)n1 [Compound I-059] | < 50 nM
CC(C)n1cnnc1-c1cccc(NC(=O)Nc2cc(C3CC3)ccn2)n1 [Compound I-047] | < 50 nM
C[C@H](CO)n1cnnc1-c1cccc(NC(=O)Nc2cc(C(=O)N3CCc4ccccc4C3)ccn2)n1 [Compound I-122] | < 50 nM
CC(C)n1cnnc1-c1cccc(N2CCN(c3ccc(N4CC5CCC(C4)O5)cn3)C2=O)n1 [Compound V-15] | < 50 nM
C[C@@H](CO)n1cnnc1-c1cccc(NC(=O)Nc2cc(Cl)ccn2)n1 [Compound I-183] | < 50 nM
C[C@H](CO)n1cnnc1-c1cccc(N2CCN(c3ccc(F)cn3)C2=O)n1 [Compound V-03] | < 50 nM
CC(C)n1cnnc1-c1cccc(NC(=O)Nc2ccc(N(C)C)cn2)n1 [Compound I-191] | < 50 nM
CC(C)n1cnnc1-c1cccc(NC(=S)Nc2ccccn2)n1 [VI-01, 1-(6-(4-Isopropyl-4H-1,2,4-triazol-3-yl)pyridin-2-yl)-3-(pyridin-2-yl)thiourea] | 50 to 500 nM
C[C@H](CO)n1cnnc1-c1cccc(-n2ccn(-c3ccc(N4CCOCC4)cn3)c2=O)n1 [III-10] | < 50 nM
CC(C)n1cnnc1-c1cccc(NC(=O)Nc2cc(C#N)ccn2)n1 [Compound I-198] | < 50 nM
CC(C)n1cnnc1-c1cccc(NC(=O)Nc2cc(S(=O)(=O)N3CCCCC3)ccn2)n1 [Compound I-206] | < 50 nM
CC(=O)OC[C@@H](C)n1cnnc1-c1cccc(NC(=O)Nc2cc(C(=O)N3CCCCC3)ccn2)n1 [Compound I-012, (2R)-2-[3-[6-([[4-(Piperidine-1-carbonyl)pyridin-2-yl]carbamoyl]amino)pyridin-2-yl]-4H-1,2,4-triazol-4-yl]propyl acetate] | 50 to 500 nM
CC(C)n1cnnc1-c1cccc(NC(=O)Nc2ccc(-n3ccnc3)cn2)n1 [Compound I-168] | 50 to 500 nM
CCN1CCN(c2ccnc(NC(=O)Nc3cccc(-c4nncn4C(C)C)n3)c2)CC1 [Compound I-099] | < 50 nM
C[C@@H](CO)n1cnnc1-c1cccc(NC(=O)Nc2cc(-c3ccccc3)ccn2)n1 [Compound I-079] | < 50 nM
C[C@H](CO)n1cnnc1-c1cccc(NC(=O)Nc2ccccn2)n1 [Compound I-026] | < 50 nM
Cc1cnc(NC(=O)Nc2cccc(-c3nncn3C(C)C)n2)cc1C [Compound I-043] | < 50 nM
O=C(Nc1cccc(-c2nncn2C2CC2)n1)Nc1ccc2ccccc2n1 [Compound I-068] | < 50 nM
Cc1cc(F)c(NC(=O)Nc2cccc(-c3nncn3C(C)C)n2)cc1-n1cnc(C2CC2)c1 [Compound I-020] | 500 to 5000 nM
CC(C)n1cnnc1-c1cccc(NC(=O)Nc2ncccc2-c2cccnc2)n1 [Compound I-082] | < 50 nM
C[C@H](CO)n1cnnc1-c1cccc(N2CCN(c3cc4ccccc4cn3)C2=O)n1 [Compound V-04] | < 50 nM
C[C@H](CO)n1cnnc1-c1cccc(NC(=O)Nc2cc(N3CCNCC3)ccn2)n1 [Compound I-096] | < 50 nM
CC(C)n1cnnc1-c1cccc(NC(=O)Nc2cc(O)ccn2)n1 [Compound I-073] | 50 to 500 nM
CC(C)n1cnnc1-c1cccc(NC(=O)Nc2cc(C3CCOCC3)ccn2)n1 [Compound I-091] | < 50 nM
